Results reported in patent US10670605B2, “Cysteine reactive probes and uses thereof” (The Scripps Research Institute, priority 2015, dated 2020).
Counter-ions that a name gives are not always drawn. Each block holds one molecule with its values, some of them ahead of it.

Key:
[1] = molecular target: Cys residues in primary human T cells (Homo sapiens, UniProt Q93009); test: isoTOP-ABPP of compound-treated primary human T cells; assay type: cell-based; details: USP7 C315 (Q93009)
PKCθ-CD28 interaction = molecular target: T1, PKCθ-CD28 interaction (Mus musculus, UniProt Q02111); test: PKCθ immunoprecipitation with CD28 and immunoblot; assay type: cell-based; details: 50 μM, mouse T cells
T1 construct: endogenous in cells; host or cells: peripheral CD4+ T cells from C57BL/6 mice
Description: FIG. 32A-FIG. 32G exemplify DMF-sensitive C14/C17 residues in PKCθ are important for CD28 interactions and T cell activation. FIG. 32A illustrates representative MS1 profiles for DMF-sensitive (C14/C17) and -insensitive (C322) Cys residues in PKCθ. FIG. 32B exemplifies sequence conservation analysis of human and mouse PKCθ, human PKCδ, and human PKCε (SEQ ID NOS 865-868, respectively, in order of appearance). Shown in red are C14 and C17. FIG. 32C illustrates location of DMF-sensitive C14 and C17 residues in the C2 domain of PKCθ (PDB accession number 2ENJ). […] Immunoprecipitations (IPs) were performed in the cell lysates with anti-CD28 or control IgG antibodies and IPs blotted for CD28 or PKCθ. FIG. 32E illustrates Co-IP of WT PKCθ and the C14S/C17S (2CS) PKCθ mutant with CD28. PKCθ(−/−) T cells were reconstituted with empty vector (EV), WT PKCθ, or the 2CS PKCθ mutant. FIG. 32F and FIG. 32 G illustrate PKCθ(−/−) T cells reconstituted with WT or 2CS PKCθ were assayed for activation potential by measuring CD25 expression (FIG. 32F) and IL-2 (FIG. 32G). For FIG. 32E-FIG. 32G, PKCθ(−/−) T cell cultures were pre-activated with plate-coated anti-CD3+anti-CD28 for 24 h before retroviral transduction with empty vector, WT PKCθ, or the 2CS PKCθ mutant. […]

MKI67 C903 (P46013) = MKI67 C903 (P46013) (Homo sapiens, UniProt P46013); test: Competitive isoTOP-ABPP in situ; assay type: cell-based; details: fragment 2 at 200 μM, MDA-MB-231 cells
MLTK (ZAK) C22 = molecular target: T2, MLTK (ZAK) C22 (Homo sapiens, UniProt Q9NYL2); test: Blockade of ibrutinib-derived probe 59 labeling of MLTK (gel-based ABPP); assay type: binding
T2 construct: expressed in transfected cells
Protocol: CuAAC was performed with 20 μM rhodamine-azide (50× stock in DMSO), 1 mM tris(2-carboxyethyl)phosphine hydrochloride (TCEP; fresh 50× stock in water, final concentration=1 mM), ligand (17× stock in DMSO:t-butanol 1:4, final concentration=100 μM) and 1 mM CuSO4 (50× stock in water, final concentration=1 mM). […] Quenched reactions were analyzed by SDS-PAGE and visualized by in-gel fluorescence. […] For MLTK, HEK 293T cells stably overexpressing MTLK^2 were treated with the indicated fragment electrophiles for 1 h, followed by labeling with 59 (1 μl, of 125 μM, final concentration=5 μM) for 1 h. These were followed by CuAAC conjugation to rhodamine-azide and evaluation by SDS-PAGE as described above.

CLTC C870 (Q00610) = CLTC C870 (Q00610) (Homo sapiens, UniProt Q00610); test: Competitive isoTOP-ABPP in situ; assay type: cell-based; details: fragment 4 at 100 μM, MDA-MB-231 cells
[2] = molecular target: cysteines in MDA-MB-231 and Ramos cells (Homo sapiens, UniProt Q13867); test: Competitive isoTOP-ABPP in situ (fragment-treated cells); assay type: cell-based; details: 200 μM, insitu, 231
[3] = molecular target: cysteines in MDA-MB-231 and Ramos cells (Homo sapiens, UniProt Q5T1V6); test: as above; assay type: cell-based; details: 200 μM, insitu, 231
[4] = molecular target: cysteines in MDA-MB-231 and Ramos cells (Homo sapiens, UniProt Q8IV53); test: as above; assay type: cell-based; details: 200 μM, insitu, ramos
[5] = molecular target: cysteines in MDA-MB-231 and Ramos cells (Homo sapiens, UniProt Q9P0K7); test: as above; assay type: cell-based; details: 100 μM in situ 231
[6] = molecular target: cysteines in MDA-MB-231 and Ramos cells (Homo sapiens, UniProt P53992); test: as above; assay type: cell-based; details: 200 μM, insitu, 231
[7] = molecular target: cysteines in MDA-MB-231 and Ramos cells (Homo sapiens, UniProt Q9UHQ1); test: as above; assay type: cell-based; details: 200 μM, insitu, ramos
[8] = molecular target: cysteines in MDA-MB-231 and Ramos cells (Homo sapiens, UniProt Q8WUM4); test: as above; assay type: cell-based; details: cysteine Q8WUM4_C90; fragment 200 μM, in situ, 231 (MDA-MB-231) cells
[9] = molecular target: cysteines in MDA-MB-231 and Ramos cells (Homo sapiens, UniProt Q96IV0); test: as above; assay type: cell-based; details: cysteine Q96IV0_C309; fragment 200 μM, in situ, ramos cells
[10] = molecular target: cysteines in MDA-MB-231 and Ramos cells (Homo sapiens, UniProt Q86UV5); test: as above; assay type: cell-based; details: 200 μM, insitu, ramos

Sequence of Cys residues in primary human T cells (Q93009 whole entry): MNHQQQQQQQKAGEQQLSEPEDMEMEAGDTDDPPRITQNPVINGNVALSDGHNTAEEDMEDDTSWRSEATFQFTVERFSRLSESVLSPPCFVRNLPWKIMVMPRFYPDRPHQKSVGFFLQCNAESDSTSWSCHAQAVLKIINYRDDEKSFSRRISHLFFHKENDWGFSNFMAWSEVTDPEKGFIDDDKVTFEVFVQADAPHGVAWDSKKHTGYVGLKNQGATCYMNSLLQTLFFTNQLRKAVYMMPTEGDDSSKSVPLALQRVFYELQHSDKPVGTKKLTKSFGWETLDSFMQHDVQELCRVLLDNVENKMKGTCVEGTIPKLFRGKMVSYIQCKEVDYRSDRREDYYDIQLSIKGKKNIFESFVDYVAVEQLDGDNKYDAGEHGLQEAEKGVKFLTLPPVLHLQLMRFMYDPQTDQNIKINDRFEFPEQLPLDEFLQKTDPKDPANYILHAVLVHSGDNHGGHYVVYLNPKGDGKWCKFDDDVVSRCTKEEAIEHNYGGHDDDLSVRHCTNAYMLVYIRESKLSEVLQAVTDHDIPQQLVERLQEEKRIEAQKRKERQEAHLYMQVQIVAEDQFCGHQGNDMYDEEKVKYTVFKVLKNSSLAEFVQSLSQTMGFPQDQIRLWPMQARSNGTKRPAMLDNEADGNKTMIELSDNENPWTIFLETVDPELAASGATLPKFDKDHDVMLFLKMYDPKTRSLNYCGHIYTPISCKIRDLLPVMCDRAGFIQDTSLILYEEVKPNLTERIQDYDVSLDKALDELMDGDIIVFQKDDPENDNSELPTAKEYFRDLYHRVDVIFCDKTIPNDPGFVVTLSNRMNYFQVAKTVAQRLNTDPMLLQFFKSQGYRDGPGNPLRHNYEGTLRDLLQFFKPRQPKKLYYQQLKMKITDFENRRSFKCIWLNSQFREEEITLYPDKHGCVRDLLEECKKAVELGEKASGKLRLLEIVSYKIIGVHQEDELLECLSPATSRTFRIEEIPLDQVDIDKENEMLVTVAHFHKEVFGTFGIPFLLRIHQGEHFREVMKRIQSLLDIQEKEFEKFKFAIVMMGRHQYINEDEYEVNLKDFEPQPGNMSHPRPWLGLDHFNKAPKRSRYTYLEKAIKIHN
T1 sequence (Q02111 whole entry): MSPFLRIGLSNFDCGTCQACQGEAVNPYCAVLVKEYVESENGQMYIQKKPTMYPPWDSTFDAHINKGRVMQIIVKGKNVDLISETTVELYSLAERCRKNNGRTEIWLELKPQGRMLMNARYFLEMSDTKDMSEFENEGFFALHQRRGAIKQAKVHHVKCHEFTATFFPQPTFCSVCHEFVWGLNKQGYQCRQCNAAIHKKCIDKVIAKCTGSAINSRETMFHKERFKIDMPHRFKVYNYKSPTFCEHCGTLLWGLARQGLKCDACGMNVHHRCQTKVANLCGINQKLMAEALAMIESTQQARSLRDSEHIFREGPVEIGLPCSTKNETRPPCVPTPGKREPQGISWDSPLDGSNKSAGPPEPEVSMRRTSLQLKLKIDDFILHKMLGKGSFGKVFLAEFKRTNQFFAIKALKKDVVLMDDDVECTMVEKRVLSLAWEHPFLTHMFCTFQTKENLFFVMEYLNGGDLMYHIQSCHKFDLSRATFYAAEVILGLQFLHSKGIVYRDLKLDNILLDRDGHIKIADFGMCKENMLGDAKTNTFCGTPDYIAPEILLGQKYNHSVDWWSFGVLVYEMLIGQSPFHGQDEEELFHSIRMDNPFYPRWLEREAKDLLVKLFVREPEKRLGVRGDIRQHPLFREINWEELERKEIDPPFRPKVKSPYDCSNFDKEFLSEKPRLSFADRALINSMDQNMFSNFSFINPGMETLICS
T2 sequence (Q9NYL2 whole entry): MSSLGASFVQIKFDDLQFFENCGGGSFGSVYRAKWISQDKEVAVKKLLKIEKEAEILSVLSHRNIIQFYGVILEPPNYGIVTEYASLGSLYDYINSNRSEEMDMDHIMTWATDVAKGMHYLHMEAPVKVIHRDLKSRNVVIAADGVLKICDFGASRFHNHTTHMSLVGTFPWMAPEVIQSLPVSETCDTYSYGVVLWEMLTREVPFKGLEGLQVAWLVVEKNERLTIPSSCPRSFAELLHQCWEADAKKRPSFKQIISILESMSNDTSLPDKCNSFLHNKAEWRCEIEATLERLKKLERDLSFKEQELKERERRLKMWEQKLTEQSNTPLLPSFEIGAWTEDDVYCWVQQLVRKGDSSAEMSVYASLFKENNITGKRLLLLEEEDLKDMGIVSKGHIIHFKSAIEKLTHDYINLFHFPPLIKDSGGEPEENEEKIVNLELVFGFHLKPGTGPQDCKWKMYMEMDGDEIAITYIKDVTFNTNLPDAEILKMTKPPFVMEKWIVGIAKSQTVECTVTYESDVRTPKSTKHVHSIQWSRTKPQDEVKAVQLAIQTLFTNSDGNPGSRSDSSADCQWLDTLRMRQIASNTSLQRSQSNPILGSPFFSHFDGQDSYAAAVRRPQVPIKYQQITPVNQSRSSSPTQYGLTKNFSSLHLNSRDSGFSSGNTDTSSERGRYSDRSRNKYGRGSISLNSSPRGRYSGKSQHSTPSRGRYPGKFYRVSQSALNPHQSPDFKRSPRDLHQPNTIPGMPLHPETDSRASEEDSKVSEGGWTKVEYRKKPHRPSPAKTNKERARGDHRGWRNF
Sequence of CLTC C870 (Q00610) (Q00610 whole entry, the tested form may be a part): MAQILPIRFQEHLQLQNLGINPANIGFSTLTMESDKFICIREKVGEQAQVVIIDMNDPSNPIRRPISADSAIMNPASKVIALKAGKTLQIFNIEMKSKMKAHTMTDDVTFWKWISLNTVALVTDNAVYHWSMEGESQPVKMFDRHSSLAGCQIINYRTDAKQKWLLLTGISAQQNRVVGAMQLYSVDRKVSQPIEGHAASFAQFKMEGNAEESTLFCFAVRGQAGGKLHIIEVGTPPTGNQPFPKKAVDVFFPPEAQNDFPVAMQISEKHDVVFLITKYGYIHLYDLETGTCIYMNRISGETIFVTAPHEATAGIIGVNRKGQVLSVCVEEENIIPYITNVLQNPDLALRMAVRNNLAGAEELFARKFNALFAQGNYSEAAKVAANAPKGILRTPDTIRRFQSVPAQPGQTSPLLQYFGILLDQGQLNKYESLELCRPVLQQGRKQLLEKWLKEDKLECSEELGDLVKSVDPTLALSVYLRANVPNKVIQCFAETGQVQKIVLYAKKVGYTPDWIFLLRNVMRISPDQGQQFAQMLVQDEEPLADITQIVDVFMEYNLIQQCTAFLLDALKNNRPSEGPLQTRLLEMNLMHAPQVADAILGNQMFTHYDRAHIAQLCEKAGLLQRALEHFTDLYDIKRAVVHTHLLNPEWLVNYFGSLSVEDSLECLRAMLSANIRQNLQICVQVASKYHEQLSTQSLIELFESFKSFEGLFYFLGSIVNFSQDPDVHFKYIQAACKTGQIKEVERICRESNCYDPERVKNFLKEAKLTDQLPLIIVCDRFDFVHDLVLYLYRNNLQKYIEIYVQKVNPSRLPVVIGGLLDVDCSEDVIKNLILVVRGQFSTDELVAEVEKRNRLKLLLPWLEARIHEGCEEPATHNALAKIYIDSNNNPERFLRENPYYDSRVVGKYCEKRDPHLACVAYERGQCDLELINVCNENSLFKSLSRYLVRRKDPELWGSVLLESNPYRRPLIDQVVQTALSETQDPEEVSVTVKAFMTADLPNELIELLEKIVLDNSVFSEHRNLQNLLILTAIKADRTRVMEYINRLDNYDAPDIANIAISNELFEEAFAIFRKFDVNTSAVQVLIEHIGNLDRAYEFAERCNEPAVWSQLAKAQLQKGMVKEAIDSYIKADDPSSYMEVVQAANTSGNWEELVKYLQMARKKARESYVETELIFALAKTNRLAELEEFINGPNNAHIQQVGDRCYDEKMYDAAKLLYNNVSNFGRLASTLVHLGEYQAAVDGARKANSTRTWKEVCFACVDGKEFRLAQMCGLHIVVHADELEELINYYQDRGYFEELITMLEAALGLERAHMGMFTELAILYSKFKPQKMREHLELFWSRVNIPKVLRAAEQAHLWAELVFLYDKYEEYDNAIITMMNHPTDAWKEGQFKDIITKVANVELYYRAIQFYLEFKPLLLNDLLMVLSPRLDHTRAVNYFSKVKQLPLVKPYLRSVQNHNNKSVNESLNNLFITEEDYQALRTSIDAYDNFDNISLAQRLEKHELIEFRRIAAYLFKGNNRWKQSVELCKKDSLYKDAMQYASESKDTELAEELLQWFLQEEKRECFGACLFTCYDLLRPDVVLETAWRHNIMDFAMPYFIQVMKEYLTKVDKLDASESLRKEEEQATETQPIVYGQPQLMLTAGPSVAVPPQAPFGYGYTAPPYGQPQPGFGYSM
Sequence of cysteines in MDA-MB-231 and Ramos cells (Homo sapiens, UniProt Q5T1V6) (Q5T1V6 whole entry): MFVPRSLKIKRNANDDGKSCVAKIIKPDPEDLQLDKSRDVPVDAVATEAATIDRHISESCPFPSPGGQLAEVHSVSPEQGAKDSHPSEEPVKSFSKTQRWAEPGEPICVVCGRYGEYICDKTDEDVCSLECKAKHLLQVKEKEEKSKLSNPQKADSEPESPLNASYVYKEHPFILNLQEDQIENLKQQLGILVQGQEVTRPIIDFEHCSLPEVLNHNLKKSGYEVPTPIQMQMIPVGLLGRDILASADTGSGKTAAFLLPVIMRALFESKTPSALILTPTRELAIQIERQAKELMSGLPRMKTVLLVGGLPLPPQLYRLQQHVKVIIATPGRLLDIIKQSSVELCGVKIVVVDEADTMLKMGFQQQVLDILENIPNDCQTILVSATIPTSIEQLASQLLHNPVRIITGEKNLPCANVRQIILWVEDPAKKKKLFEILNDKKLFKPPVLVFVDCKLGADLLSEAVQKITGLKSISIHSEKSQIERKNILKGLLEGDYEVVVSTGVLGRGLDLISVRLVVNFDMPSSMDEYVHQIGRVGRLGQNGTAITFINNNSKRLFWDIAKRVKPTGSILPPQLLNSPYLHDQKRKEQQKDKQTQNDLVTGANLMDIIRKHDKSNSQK

SMILES: COC(=O)/C=C/C(=O)OC [DMF, dimethyl fumarate]
R value (DMSO/DMF) ([1]; DMF 10 μM 4h): 1.9 | R value (DMSO/DMF) ([1]; DMF 50 μM 1h): 5.33 | R value (DMSO/DMF) ([1]; DMF 50 μM 2h): 14.06 | interaction between PKCθ and CD28 (PKCθ-CD28 interaction): blocked

SMILES: O=C(CCl)Nc1cc(C(F)(F)F)cc(C(F)(F)F)c1 [compound 3]
blockade of probe 59 labeling of MLTK (in words) (MLTK (ZAK) C22): inactive

SMILES: Cn1cc(S(=O)(=O)N2CCOCC2)cc1C(=O)NC(=O)CCl [compound 11]
isoTOP-ABPP ratio, cysteine Q9P0K7_C973 [5]: 0.8

SMILES: O=C(CCl)NCCc1c[nH]c2ccccc12 [compound 13]
isoTOP-ABPP ratio, cysteine P53992_C78 [6]: 0.7 | isoTOP-ABPP ratio, cysteine Q9UHQ1_C99 [7]: 20.0

SMILES: CC(C)CCOCCNC(=O)CCl [compound 27]
reactivity profile of liganded cysteine Q8WUM4_C90 with fragment electrophile (isoTOP-ABPP ratio) [8]: 0.6

SMILES: O=C(CCl)N1CCN(CC(=O)N2CCOCC2)CC1 [compound 29]
reactivity profile of liganded cysteine Q96IV0_C309 with fragment electrophile (isoTOP-ABPP ratio) [9]: 3.0

SMILES: C=CC(=O)N(Cc1cccnc1)c1cc(C(F)(F)F)cc(C(F)(F)F)c1 [compound 31]
isoTOP-ABPP ratio, Q86UV5_C39 [10]: 1.3

Other lines, results leading:

isoTOP-ABPP reactivity profile (ratio) 2_200 μM_in-situ_231 (MKI67 C903 (P46013)): 20.0
SMILES: COc1ccc2c(c1)CCCN2C(=O)CCl [compound 2]

isoTOP-ABPP reactivity profile (ratio) 4_100 μM_in-situ_231 (CLTC C870 (Q00610)): 2.1
SMILES: COc1ccc(C2CC(c3cccs3)=NN2C(=O)CCl)cc1 (stereo not shown) [compound 4]

isoTOP-ABPP ratio, cysteine Q13867_C73 [2]: 4.2 | isoTOP-ABPP ratio, cysteine Q5T1V6_C414 [3]: 11.3 | isoTOP-ABPP ratio, cysteine Q8IV53_C174 [4]: 5.0
SMILES: O=C(CCl)N1CCN(S(=O)(=O)c2ccccc2F)CC1 [compound 10]
